Read-outs that look alike come from different tables or passages of the source.

The record followed here is patent US9266835B2, “Quinoline derivatives useful as CB-1 inverse agonists” (JANSSEN PHARMACEUTICA NV, priority 2014, dated 2016).

A short description of data set [1]: Open Field Locomotor Activity in Rats (CNS activity), stereotypic counts. The following applies: n=8, 4 hours, dose not printed in row (doses 3 and 10 mg/kg). The data set is classed as in vivo, rat. From the text: (§1) Male Sprague Dawley rats were ordered from Charles River (225-250 gm upon arrival). They were fed standard chow diet (Purina 5001) and housed 2 per cage. Male C57bl/6j mice were ordered from Charles River at 22-25 g and housed 3 per cage. They were fed standard chow (Purina 5001). All animals were housed in a temperature-controlled room with 12-hour light/dark cycle. Animals were given food and water ad libitum, except as noted.
(§2) Test compounds were formulated in 10% PEG400 and 10% solutol. Test compounds were administered by oral gavage (5 ml kg^−1).
Male SD rats were weighed and transferred to the Activity Chambers with access to water. After a 2-hr acclimation period, the rats were dosed with vehicle or test compound (@ 3 and 10 mg/kg). The Activity Chamber monitoring software program was initiated and automatically recorded rat activity in each chamber for a period of 4 hours. At the end of the 4 hour monitoring period, the software was stopped and the rats were removed from the activity chambers. The rats were anesthetized and blood samples were obtained via retro-orbital puncture to determine plasma concentration of compounds. The rats were immediately euthanized with CO2 and the brains removed, washed with PBS, frozen on dry ice and stored at −80° C. for receptor occupancy (RO) analysis. […]

A short description of data set [2]: Open field locomotor study in rats: plasma and brain concentrations 4 hrs post dosing. The data set is classed as in vivo. The following applies: male, Sprague Dawley, rat, oral.
Source text: as §1, §2
Male SD rats were weighed and transferred to the Activity Chambers with access to water. After a 2-hr acclimation period, the rats were dosed with vehicle or test compound (@ 3 and 10 mg/kg). The Activity Chamber monitoring software program was initiated and automatically recorded rat activity in each chamber for a period of 4 hours. At the end of the 4 hour monitoring period, the software was stopped and the rats were removed from the activity chambers. The rats were anesthetized and blood samples were obtained via retro-orbital puncture to determine plasma concentration of compounds. The rats were immediately euthanized with CO2 and the brains removed, washed with PBS, frozen on dry ice and stored at −80° C. for receptor occupancy (RO) analysis.
Satellite groups of 3 rats were dosed with test compound at 3 mg/kg and 10 mg/kg respectively. Four hours later, the rats were anesthetized. Blood was collected from these rats and then they were perfused with 400 ml heparinized saline through the left ventricle of the heart. The brains were removed and homogenized in PBS (4 ml/gm tissue). The samples were submitted for determination of plasma and brain compound levels.
Compound #44 was tested in n=8 animals, according to the procedure as described above, with stereotypic counts as listed in Table BIO-5A; and plasma and brain drug levels as listed in Table BIO-5B, below.

For the compound `O=c1cc(NC2CCN(S(=O)(=O)C(F)(F)F)CC2)c2cc(C(c3ccc(Cl)cc3)c3ccc(Cl)cc3)ccc2[nH]1` [Compound #44, 6-(bis(4-chlorophenyl)methyl)-4-(1-(trifluoromethylsulfonyl)piperidin-4-ylamino)quinolin-2(1H)-one], the “Stereotypic Counts (MEAN)” value in data set [1] (first #44 row) came out at 3250; in data set [1] (second #44 row), 2850. Further, the concentration at 4 h in data set [2] (brain, 3 mg/kg, read-out: Brain Mean ± Std Dev) amounted to 9.85 ng/g; in data set [2] (brain, 10 mg/kg, read-out: Brain Mean ± Std Dev) it was 22.7 ng/g; in data set [2] (plasma, 3 mg/kg, read-out: Plasma Mean ± Std Dev) it was 126 ng/mL; in data set [2] (plasma, 10 mg/kg, read-out: Plasma Mean ± Std Dev), 501 ng/mL.
